Results taken from US11179372B2, “Isoxazoline solution containing vitamin E for use with sanitized drinking water” (Intervet Inc., priority 2015, dated 2021).

What was measured:
[1] = test system: Northern fowl mite (O. sylviarum); assay: Efficacy of Fluralaner in medicated drinking water against Northern fowl mite infestation of laying hens; type: in vivo, Ornithonyssus sylviarum
Description: No vitamin E was present in the concentrated Fluralaner solution used to prepare the medicated drinking water. The effectivity of an oral dosing regimen of Fluralaner was tested by administering medicated drinking water (via gavage) to laying hens, in 2 repeated doses of 0.25, 0.5 or 1.0 mg/kg body weight, administered 7 days apart, and challenging them with infestation by Northern fowl mites, via source birds and natural infestation. The birds were kept in separate pens, at 11 birds per pen. The statistical analysis of results was based on mite count from each bird in the study, using pen as a random factor in the model, and mite counts were performed and recorded for individual birds. Mite vent count reduction of the treated groups compared to the control group was the primary efficacy criterion.

[2] = Accelerated stability testing of pharmaceutical composition comprising a protector; type: physicochemical; settings: with alpha-tocopherol; up to 8 months; 2-8° C., 30° C./65% RH, 40° C./75% RH, 50° C.
Description: Similar to the experiments described in Example 3 above, where the effect of water quality on Fluralaner-containing medicated drinking water was tested; here samples of the pharmaceutical composition were tested for an effect of the addition of a protector, on their stability during prolonged storage.
To test the long term stability of the pharmaceutical composition with a protector, some samples were stored under conditions of accelerated ageing. Samples of the pharmaceutical composition with or without one of the protectors, were filled out in portions of 7 gram each, in 10 ml glass vials, sealed with rubber stoppers, and stored under different conditions: 2-8° C.; 30° C./65% RH; 40° C./75% RH, and 50° C. […]

[3] = test system: poultry red mite (D. gallinae); assay: Efficacy of Fluralaner in medicated drinking water against poultry red mite infestation of laying hens; type: in vivo, Dermanyssus gallinae; settings: for % Inhibition of mites 24 hours after infestation on day 1 / % Inhibition of mites 24 hours after infestation on day 5 / % Inhibition of mites 24 hours after infestation on day 8 / % Inhibition of mites 24 hours after infestation on day 12 / % Inhibition of mites 24 hours after infestation on day 15 / % Inhibition of mites 24 hours after infestation on day 19 / % Inhibition of mites 24 hours after infestation on day 22 / % Mortality of mites 24 hours after infestation on day 1 / % Mortality of mites 24 hours after infestation on day 5 / % Mortality of mites 24 hours after infestation on day 8 / % Mortality of mites 24 hours after infestation on day 12 / % Mortality of mites 24 hours after infestation on day 15 / % Mortality of mites 24 hours after infestation on day 19 / % Mortality of mites 24 hours after infestation on day 22: laying hens
Text: The drinking water used was regular tap water not comprising a significant amount of oxidising sanitizer, and no vitamin E was used in the concentrated Fluralaner solution used. Experimental animals were chickens, particularly laying hens of about 30 weeks old. These were housed in a standard poultry house. Apparently healthy birds were assigned in a random way to treatment groups kept separately, and labelled individually. The birds were kept under natural light, and were given several days for acclimatization; drinking water consumption in each group was measured on three days prior to administration to calculate the average daily water consumption. Medicated water was prepared by diluting a concentrated Fluralaner solution (10 mg/ml) to the desired concentration of Fluralaner in regular tap water (hypochlorite <0.5 ppm). […] Groups A-D (n=6) were treated with doses of 2, 1 or 0.5 mg Fluralaner/kg BW once, or with 1 mg Fluralaner/kg BW in a repeated dose of 0.5 mg/kg BW on 2 occasions, 7 days apart. On day 0 (and group D additionally on day 7), the hens in groups A-D received Fluralaner via medicated drinking water. Group E received un-medicated drinking water ad libitum. The dose to be administered was calculated based on average body weights of each treatment group, measured one day before treatment (day −1, day 6). A concentrated Fluralaner solution was diluted in the drinking water to prepare medicated drinking water ready for consumption, via the following dosing regimen: • The volume of medicated water offered per group on day 0 (group D also on day 7) was approximately 50% of the calculated mean daily water intake measured previously in the respective group in order to ensure consumption of the full dose. • Once all medicated water was consumed the other 50% volume of the mean daily water intake was supplied as unmedicated tap water in the same drinker. On days 1, 5, 8, 12, 15, 19 and 22, four of the six hens per group were infested with approximately 200 vital, D. gallinae mites (unfed nymphs and adults that had starved before infestation for 7 days). From each infested hen approximately 25 engorged mites were collected after a few hours of presence in the animal box, next they were incubated for approximately 24 hours, after which their status was observed. The dead, damaged and/or live mites were counted visually using a binocular. Mites were classified as dead if no movement was determined or mites lay in a dorsal position. Mites were classified as damaged if their movement was uncoordinated. The Mite Mortality and Mite Inhibition percentage was calculated for each treated group in comparison to a non-treated negative control group.

[4] = Group A, 2 mg/kg BW once, drinking water
[5] = Group B, 1 mg/kg BW once, drinking water
[6] = Group C, 0.5 mg/kg BW once, drinking water
[7] = Group D, 1 (2 × 0.5) mg/kg BW, days 0 and 7, drinking water

Structure (SMILES): Cc1cc(C2=NOC(c3cc(Cl)cc(Cl)c3)(C(F)(F)F)C2)ccc1C(=O)NCC(=O)NCC(F)(F)F (stereo not shown) [Fluralaner]
- Duration of efficacy after first treatment administration ([1]; 0.25 mg/kg BW dose group (2 doses, 7 days apart)): up to 19 days
- Duration of efficacy after first treatment administration ([1]; 0.5 mg/kg BW dose group (2 doses, 7 days apart)): ≤ 22 days
- Duration of efficacy after first treatment administration ([1]; 1.0 mg/kg BW dose group (2 doses, 7 days apart)): ≤ 22 days
- Efficacy against O. sylviarum ([1]; 2 single doses of 0.25, 0.5, or 1 mg/kg BW, 7 days apart, oral): significant efficacy
- Reductions in mite vent counts, onset ([1]; all treated groups, beginning at day 1): statistically significant reductions
- Efficacy against Northern fowl mites (reduction in mite vent count) ([1]; all treated groups, for at least 19 days, untreated source birds in same pen): > 90%
- Level of Fluralaner in pharmaceutical composition on storage [2]: no significant reduction
- % Inhibition of mites 24 hours after infestation on day 1 [3, 4]: 100%
- % Inhibition of mites 24 hours after infestation on day 5 [3, 4]: 100%
- % Inhibition of mites 24 hours after infestation on day 8 [3, 4]: 100%
- % Inhibition of mites 24 hours after infestation on day 12 [3, 4]: 100%
- % Inhibition of mites 24 hours after infestation on day 15 [3, 4]: 81%
- % Inhibition of mites 24 hours after infestation on day 19 [3, 4]: 14%
- % Inhibition of mites 24 hours after infestation on day 22 [3, 4]: 0%
- % Mortality of mites 24 hours after infestation on day 1 [3, 4]: 100%
- % Mortality of mites 24 hours after infestation on day 5 [3, 4]: 100%
- % Mortality of mites 24 hours after infestation on day 8 [3, 4]: 100%
- % Mortality of mites 24 hours after infestation on day 12 [3, 4]: 100%
- % Mortality of mites 24 hours after infestation on day 15 [3, 4]: 77%
- % Mortality of mites 24 hours after infestation on day 19 [3, 4]: 1%
- % Mortality of mites 24 hours after infestation on day 22 [3, 4]: 0%
- % Inhibition of mites 24 hours after infestation on day 1 [3, 5]: 100%
- % Inhibition of mites 24 hours after infestation on day 5 [3, 5]: 100%
- % Inhibition of mites 24 hours after infestation on day 8 [3, 5]: 100%
- % Inhibition of mites 24 hours after infestation on day 12 [3, 5]: 95%
- % Inhibition of mites 24 hours after infestation on day 15 [3, 5]: 81%
- % Inhibition of mites 24 hours after infestation on day 19 [3, 5]: 3%
- % Inhibition of mites 24 hours after infestation on day 22 [3, 5]: 0%
- % Mortality of mites 24 hours after infestation on day 1 [3, 5]: 100%
- % Mortality of mites 24 hours after infestation on day 5 [3, 5]: 100%
- % Mortality of mites 24 hours after infestation on day 8 [3, 5]: 100%
- % Mortality of mites 24 hours after infestation on day 12 [3, 5]: 94%
- % Mortality of mites 24 hours after infestation on day 15 [3, 5]: 77%
- % Mortality of mites 24 hours after infestation on day 19 [3, 5]: 2%
- % Mortality of mites 24 hours after infestation on day 22 [3, 5]: 0%
- % Inhibition of mites 24 hours after infestation on day 1 [3, 6]: 100%
- % Inhibition of mites 24 hours after infestation on day 5 [3, 6]: 100%
- % Inhibition of mites 24 hours after infestation on day 8 [3, 6]: 100%
- % Inhibition of mites 24 hours after infestation on day 12 [3, 6]: 75%
- % Inhibition of mites 24 hours after infestation on day 15 [3, 6]: 19%
- % Inhibition of mites 24 hours after infestation on day 19 [3, 6]: 0%
- % Inhibition of mites 24 hours after infestation on day 22 [3, 6]: 0%
- % Mortality of mites 24 hours after infestation on day 1 [3, 6]: 100%
- % Mortality of mites 24 hours after infestation on day 5 [3, 6]: 100%
- % Mortality of mites 24 hours after infestation on day 8 [3, 6]: 97%
- % Mortality of mites 24 hours after infestation on day 12 [3, 6]: 55%
- % Mortality of mites 24 hours after infestation on day 15 [3, 6]: 15%
- % Mortality of mites 24 hours after infestation on day 19 [3, 6]: 0%
- % Mortality of mites 24 hours after infestation on day 22 [3, 6]: 0%
- % Inhibition of mites 24 hours after infestation on day 1 [3, 7]: 100%
- % Inhibition of mites 24 hours after infestation on day 5 [3, 7]: 100%
- % Inhibition of mites 24 hours after infestation on day 8 [3, 7]: 100%
- % Inhibition of mites 24 hours after infestation on day 12 [3, 7]: 100%
- % Inhibition of mites 24 hours after infestation on day 15 [3, 7]: 99%
- % Inhibition of mites 24 hours after infestation on day 19 [3, 7]: 66%
- % Inhibition of mites 24 hours after infestation on day 22 [3, 7]: 27%
- % Mortality of mites 24 hours after infestation on day 1 [3, 7]: 100%
- % Mortality of mites 24 hours after infestation on day 5 [3, 7]: 100%
- % Mortality of mites 24 hours after infestation on day 8 [3, 7]: 100%
- % Mortality of mites 24 hours after infestation on day 12 [3, 7]: 100%
- % Mortality of mites 24 hours after infestation on day 15 [3, 7]: 98%
- % Mortality of mites 24 hours after infestation on day 19 [3, 7]: 59%
- % Mortality of mites 24 hours after infestation on day 22 [3, 7]: 14%
- Onset of action against red mites ([3]; all administered doses): fast onset of action
